Assay: Part B: safety, treatment-emergent adverse events, DLT and MTD
Format: in vivo
Text: For the purpose of the present invention, the adverse events were graded as per the National Cancer Institute's, Common Terminology Criteria for Adverse Events (NCI-CTCAE) Version 4.03 and Version 5.0 (https://evs.nci.nih.gov/ftp1/CTCAE/About.html). It is a descriptive terminology which can be utilized for Adverse Event (AE) reporting.
AEs were graded as per NCI-CTCAE Version 5.0. In the present study, along with others most common AEs for which patients were monitored were thrombocytopenia, neutropenia and anemia, any AE reported by the patient after the completion of AE collection period and considered related to the study drug was reported.
Dose Limiting Toxicity (DLT) is defined as the occurrence of any of the following unless clearly and incontrovertibly related to the underlying disease. The hematological DLTs were defined as per the Phase of CML: • a) Grade 3 or higher, or other non-hematological toxicity, including nausea, vomiting and diarrhea, and refractory to standard antiemetic therapy except alopecia and nail disorders; • b) Missed ≥25% of doses over 28 days due to toxicity in Cycle 1; and • c) Any grade of toxicity requiring dose reduction or discontinuation of IMP within the 28-days DLT assessment period (Cycle 1).
Safety Parameters: Parts B and C: Descriptive summaries were provided for the safety variables collected. Continuous variables were summarized using mean, standard deviation, minimum, median, and maximum. Categorical variables were summarized using frequency counts and percentages. For time-to-event variables, other percentiles were presented. In addition, summaries of AEs by intensity, seriousness, frequency, and relationship to IMP are presented. Adverse events (AE) s were coded using the Medical Dictionary for Regulatory Activities (MedDRA) and summarized by System Organ Class (SOC) and Preferred Term (PT).
In this study, the dose-escalation cohort started with an accelerated titration study design (ATD) and shifted to a 3±3 design when subjects in the preceding ATD cohort experienced either grade 2 or higher adverse events (AEs) or dose-limiting toxicity (DLT) during Cycle 1 that was not clearly and incontrovertibly related to the underlying disease or concomitant medications. The DLT period consisted of 28 days (Cycle 1). Subjects experiencing DLTs were managed with dose delays and/or discontinuation and continued in the study until disease progression. Decisions to advance to a succeeding dose level occurred after the evaluation of safety and tolerability data for a given dose level.
For the cohorts, where the 3±3 design applies, 3 subjects were enrolled initially. If 2 of these subjects experienced a Grade 2 or more toxicity (that was not clearly and incontrovertibly related to the underlying disease or concomitant medications), subsequent cohorts were escalated according to smaller increments. Further, if there were no DLTs in the first 3 subjects, dose escalation to the next higher dose level was allowed to proceed. If 1 of the 3 subjects experienced a DLT, that dose level was expanded to 6 subjects (3 additional subjects were enrolled). If 2 subjects at a given dose level experienced a DLT, the MTD was considered to have been exceeded. The next lower dose level was expanded to 6 subjects, or if 6 subjects had already been enrolled and no more than 1 of the 6 subjects experienced a DLT, then this lower dose level was considered the MTD. Additional subjects were enrolled in dose escalation cohorts for further assessment of safety and efficacy of the compound of Formula 1 at doses that were tolerated (i.e., doses that have <2 DLTs in 6 enrolled subjects or <1 DLT in 3 enrolled subjects). Thus 204 mg was arrived at as MTD. A subject experiencing a DLT was allowed to continue therapy with a reduced dose. Subjects who experienced a DLT and recovered were treated at the next lower dose level until disease progression or other events requiring further dose reduction existed. […]

Cc1ccc(C(=O)NNC(=O)c2c(C)cccc2Cl)cc1C#Cc1cnc2ccccc2c1 [compound of Formula I, N′-(2-chloro-6-methylbenzoyl)-4-methyl-3-[2-(3-quinolyl)ethynyl]-benzohydrazide]
anemia (grade 3 or 4): 13% | diarrhea (grade 3 or 4): 2% | thrombocytopenia (grade 3 or 4): 18.8% | deaths during the study (human, in vivo): 5 | daily doses at which dose-limiting toxicities were present (human, in vivo, 28 days): 240 mg | dose modification (of patients): 20.7% | temporary dose interruptions (of patients): 37.7% | MTD (maximum tolerated dose) (oral, once daily): 204 mg | deaths considered related to the compound (out of 5 deaths): 1 | TEAEs, any grade (overall 53 patients): 96.2% | grade 3 or 4 TEAEs (overall 53 patients): 64.1% | highest efficacious and tolerable daily dose (patients with prior TKI exposure, mutations and ACAs): 204 mg | All TEAEs, Any grade (≤2 prior TKIs (N = 18)): 16 No of pts | All TEAEs, Grade 3/4 (≤2 prior TKIs (N = 18)): 6 No of pts | Amylase increased, Any grade (≤2 prior TKIs (N = 18)): 0 No of pts | Amylase increased, Grade 3/4 (≤2 prior TKIs (N = 18)): 0 No of pts | Anemia, Any grade (≤2 prior TKIs (N = 18)): 2 No of pts | Anemia, Grade 3/4 (≤2 prior TKIs (N = 18)): 2 No of pts | Back pain, Any grade (≤2 prior TKIs (N = 18)): 1 No of pts | Back pain, Grade 3/4 (≤2 prior TKIs (N = 18)): 0 No of pts | Constipation, Any grade (≤2 prior TKIs (N = 18)): 2 No of pts | Constipation, Grade 3/4 (≤2 prior TKIs (N = 18)): 0 No of pts | Cough, Any grade (≤2 prior TKIs (N = 18)): 3 No of pts | Cough, Grade 3/4 (≤2 prior TKIs (N = 18)): 0 No of pts | Death, Any grade (≤2 prior TKIs (N = 18)): 3 No of pts | Death, Grade 3/4 (≤2 prior TKIs (N = 18)): 0 No of pts | Decreased appetite, Any grade (≤2 prior TKIs (N = 18)): 1 No of pts | Decreased appetite, Grade 3/4 (≤2 prior TKIs (N = 18)): 0 No of pts | Diarrhoea, Any grade (≤2 prior TKIs (N = 18)): 1 No of pts | Diarrhoea, Grade 3/4 (≤2 prior TKIs (N = 18)): 0 No of pts | Fatigue, Any grade (≤2 prior TKIs (N = 18)): 2 No of pts | Fatigue, Grade 3/4 (≤2 prior TKIs (N = 18)): 0 No of pts | Headache, Any grade (≤2 prior TKIs (N = 18)): 1 No of pts | Headache, Grade 3/4 (≤2 prior TKIs (N = 18)): 0 No of pts | Lipase increased, Any grade (≤2 prior TKIs (N = 18)): 0 No of pts | Lipase increased, Grade 3/4 (≤2 prior TKIs (N = 18)): 0 No of pts | Myalgia, Any grade (≤2 prior TKIs (N = 18)): 1 No of pts | Myalgia, Grade 3/4 (≤2 prior TKIs (N = 18)): 0 No of pts | Nasopharyngitis, Any grade (≤2 prior TKIs (N = 18)): 3 No of pts | Nasopharyngitis, Grade 3/4 (≤2 prior TKIs (N = 18)): 0 No of pts | Nausea, Any grade (≤2 prior TKIs (N = 18)): 0 No of pts | Nausea, Grade 3/4 (≤2 prior TKIs (N = 18)): 0 No of pts | Neutropenia, Any grade (≤2 prior TKIs (N = 18)): 2 No of pts | Neutropenia, Grade 3/4 (≤2 prior TKIs (N = 18)): 2 No of pts | Pruritis, Any grade (≤2 prior TKIs (N = 18)): 2 No of pts | Pruritis, Grade 3/4 (≤2 prior TKIs (N = 18)): 0 No of pts | Pyrexia, Any grade (≤2 prior TKIs (N = 18)): 2 No of pts | Pyrexia, Grade 3/4 (≤2 prior TKIs (N = 18)): 0 No of pts | Rhinitis, Any grade (≤2 prior TKIs (N = 18)): 2 No of pts | Rhinitis, Grade 3/4 (≤2 prior TKIs (N = 18)): 0 No of pts | SAEs, Any grade (≤2 prior TKIs (N = 18)): 6 No of pts | SAEs, Grade 3/4 (≤2 prior TKIs (N = 18)): 2 No of pts | TEAEs Leading to drug withdrawal, Any grade (≤2 prior TKIs (N = 18)): 3 No of pts | TEAEs Leading to drug withdrawal, Grade 3/4 (≤2 prior TKIs (N = 18)): 0 No of pts | TEAEs Related to comp of Formula I, Any grade (≤2 prior TKIs (N = 18)): 12 No of pts | TEAEs Related to comp of Formula I, Grade 3/4 (≤2 prior TKIs (N = 18)): 3 No of pts | TEAEs: Dose discontinued and restarted, Any grade (≤2 prior TKIs (N = 18)): 5 No of pts | TEAEs: Dose discontinued and restarted, Grade 3/4 (≤2 prior TKIs (N = 18)): 2 No of pts | TEAEs: Dose modifications, Any grade (≤2 prior TKIs (N = 18)): 1 No of pts | TEAEs: Dose modifications, Grade 3/4 (≤2 prior TKIs (N = 18)): 1 No of pts | Thrombocytopenia, Any grade (≤2 prior TKIs (N = 18)): 7 No of pts | Thrombocytopenia, Grade 3/4 (≤2 prior TKIs (N = 18)): 3 No of pts | Vomiting, Any grade (≤2 prior TKIs (N = 18)): 0 No of pts | Vomiting, Grade 3/4 (≤2 prior TKIs (N = 18)): 0 No of pts | All TEAEs, Any grade (≥3 prior TKIs (N = 35)): 35 No of pts | All TEAEs, Grade 3/4 (≥3 prior TKIs (N = 35)): 28 No of pts | Amylase increased, Any grade (≥3 prior TKIs (N = 35)): 5 No of pts | Amylase increased, Grade 3/4 (≥3 prior TKIs (N = 35)): 4 No of pts | Anemia, Any grade (≥3 prior TKIs (N = 35)): 9 No of pts | Anemia, Grade 3/4 (≥3 prior TKIs (N = 35)): 5 No of pts | Back pain, Any grade (≥3 prior TKIs (N = 35)): 6 No of pts | Back pain, Grade 3/4 (≥3 prior TKIs (N = 35)): 0 No of pts | Constipation, Any grade (≥3 prior TKIs (N = 35)): 6 No of pts | Constipation, Grade 3/4 (≥3 prior TKIs (N = 35)): 0 No of pts | Cough, Any grade (≥3 prior TKIs (N = 35)): 8 No of pts | Cough, Grade 3/4 (≥3 prior TKIs (N = 35)): 0 No of pts | Death, Any grade (≥3 prior TKIs (N = 35)): 2 No of pts | Death, Grade 3/4 (≥3 prior TKIs (N = 35)): 0 No of pts | Decreased appetite, Any grade (≥3 prior TKIs (N = 35)): 5 No of pts | Decreased appetite, Grade 3/4 (≥3 prior TKIs (N = 35)): 0 No of pts | Diarrhoea, Any grade (≥3 prior TKIs (N = 35)): 11 No of pts | Diarrhoea, Grade 3/4 (≥3 prior TKIs (N = 35)): 1 No of pts | Fatigue, Any grade (≥3 prior TKIs (N = 35)): 5 No of pts | Fatigue, Grade 3/4 (≥3 prior TKIs (N = 35)): 0 No of pts | Headache, Any grade (≥3 prior TKIs (N = 35)): 7 No of pts | Headache, Grade 3/4 (≥3 prior TKIs (N = 35)): 0 No of pts | Lipase increased, Any grade (≥3 prior TKIs (N = 35)): 5 No of pts | Lipase increased, Grade 3/4 (≥3 prior TKIs (N = 35)): 4 No of pts | Myalgia, Any grade (≥3 prior TKIs (N = 35)): 6 No of pts | Myalgia, Grade 3/4 (≥3 prior TKIs (N = 35)): 0 No of pts | Nasopharyngitis, Any grade (≥3 prior TKIs (N = 35)): 3 No of pts | Nasopharyngitis, Grade 3/4 (≥3 prior TKIs (N = 35)): 0 No of pts | Nausea, Any grade (≥3 prior TKIs (N = 35)): 8 No of pts | Nausea, Grade 3/4 (≥3 prior TKIs (N = 35)): 0 No of pts | Neutropenia, Any grade (≥3 prior TKIs (N = 35)): 6 No of pts | Neutropenia, Grade 3/4 (≥3 prior TKIs (N = 35)): 5 No of pts | Pruritis, Any grade (≥3 prior TKIs (N = 35)): 4 No of pts | Pruritis, Grade 3/4 (≥3 prior TKIs (N = 35)): 0 No of pts | Pyrexia, Any grade (≥3 prior TKIs (N = 35)): 6 No of pts | Pyrexia, Grade 3/4 (≥3 prior TKIs (N = 35)): 1 No of pts | Rhinitis, Any grade (≥3 prior TKIs (N = 35)): 4 No of pts | Rhinitis, Grade 3/4 (≥3 prior TKIs (N = 35)): 0 No of pts | SAEs, Any grade (≥3 prior TKIs (N = 35)): 14 No of pts | SAEs, Grade 3/4 (≥3 prior TKIs (N = 35)): 10 No of pts | TEAEs Leading to drug withdrawal, Any grade (≥3 prior TKIs (N = 35)): 3 No of pts | TEAEs Leading to drug withdrawal, Grade 3/4 (≥3 prior TKIs (N = 35)): 2 No of pts | TEAEs Related to comp of Formula I, Any grade (≥3 prior TKIs (N = 35)): 23 No of pts | TEAEs Related to comp of Formula I, Grade 3/4 (≥3 prior TKIs (N = 35)): 11 No of pts | TEAEs: Dose discontinued and restarted, Any grade (≥3 prior TKIs (N = 35)): 15 No of pts | TEAEs: Dose discontinued and restarted, Grade 3/4 (≥3 prior TKIs (N = 35)): 10 No of pts | TEAEs: Dose modifications, Any grade (≥3 prior TKIs (N = 35)): 10 No of pts | TEAEs: Dose modifications, Grade 3/4 (≥3 prior TKIs (N = 35)): 5 No of pts | Thrombocytopenia, Any grade (≥3 prior TKIs (N = 35)): 17 No of pts | Thrombocytopenia, Grade 3/4 (≥3 prior TKIs (N = 35)): 7 No of pts | Vomiting, Any grade (≥3 prior TKIs (N = 35)): 7 No of pts | Vomiting, Grade 3/4 (≥3 prior TKIs (N = 35)): 0 No of pts
